{"source": "patent US20110269790A1", "about": "“NOVEL THIENOPYRIDINES AS PHARMACOLOGICALLY ACTIVE AGENTS” (priority 2009, published 2011)"}
{"test_system": "IL-1β", "assay": "IL-1β in rat paw tissue and serum, FCA model (ELISA)", "type": "in vivo", "set-up": "% Inhibition (IL-1 Beta) / Percentage of Inhibition (IL-1 Beta): concentration or dose not given beside the values", "conditions": "paw tissue, termination day (21st day), BN compounds 100 mg/kg, indomethacin 2.5 mg/kg", "procedure": "(§1) Group I—Normal Control; Group II—Arthritic control; Group III—Arthritic rats administered with Synthetic compound BN-4; Group IV—arthritic rats administered with compound BN-14; Group V—arthritic rats administered with BN-16; Group VI—arthritic rats administered with standard drug indomethacin. Administration of test compounds and indomethacin started on the same day of adjuvant injection at the dose of 100 and 2.5 mg/kg respectively. The test and indomethacin doses continued up to 21 days in FCA induced model and 24 days in collagen induced model. During the study period the paw volumes were measured on 5th, 12th, 18th and 21 st days and the weight of the animals was also recorded at different time intervals. At each time point the percentage of inhibition of paw volume was calculated with reference to mean paw volume of control group In FCA model, animals were sacrificed on 21st day by cervical dislocation. Before sacrificing the animals, blood was collected and used for estimation of total leukocyte count, TNF-α and IL-1β.\n(§2) In FCA induced study paw tissues were collected on termination day and estimated TNF-α and IL-1β levels for all the groups by ELISA method.\n(§3) On termination day blood samples were collected and serum was used for the estimation of Both TNF-α and IL-1β levels in FCA and Collagen induced studies. Both the parameters were determined using ELISA kits. TNF-α could not be determined as their expression is very less in serum samples of the rats in the two models studied, where as IL-1β expression in serum was good. Daily treatment of synthetic compounds by oral administration was effective in reducing the serum IL-1β levels (P<0.01) when compared with arthritic control group."}
{"smiles": "Cc1sc2nc3c(c(N)c2c1C)CCCCC3", "note": "[BN-4, 2,3-dimethyl-6,7,8,9-tetrahydro-5H-cyclohepta[b]thieno[3,2-e]pyridin-4-amine]", "IL-1 Beta concentration": "92.07 ± 10.70 ng/gm of tissue"}
{"smiles": "Nc1c2c(nc3sc4c(c13)CCC4)CCCC2", "note": "[BN-14, 2,3,6,7,8,9-Hexahydro-1H-cyclopenta[4,5]thieno[2,3-b]quinolin-10-amine]", "IL-1 Beta concentration": "113.0 ± 26.8 ng/gm of tissue"}
{"test_system": "IL-1β", "assay": "IL-1β in rat paw tissue and serum, FCA model (ELISA)", "type": "in vivo", "set-up": "% Inhibition (IL-1 Beta) / Percentage of Inhibition (IL-1 Beta): concentration or dose not given beside the values", "conditions": "paw tissue, termination day, FCA model", "procedure": "as §1, §2, §3", "units": {"% Inhibition (IL-1 Beta)": "%"}}
{"smiles": "Cc1sc2nc3c(c(N)c2c1C)CCCCC3", "note": "[BN-4, 2,3-dimethyl-6,7,8,9-tetrahydro-5H-cyclohepta[b]thieno[3,2-e]pyridin-4-amine]", "% Inhibition (IL-1 Beta)": "33.59 ± 5.53"}
{"smiles": "Nc1c2c(nc3sc4c(c13)CCC4)CCCC2", "note": "[BN-14, 2,3,6,7,8,9-Hexahydro-1H-cyclopenta[4,5]thieno[2,3-b]quinolin-10-amine]", "% Inhibition (IL-1 Beta)": "38.49 ± 14.97"}
{"test_system": "IL-1β", "assay": "IL-1β in rat paw tissue and serum, FCA model (ELISA)", "type": "in vivo", "set-up": "% Inhibition (IL-1 Beta) / Percentage of Inhibition (IL-1 Beta): concentration or dose not given beside the values", "conditions": "rat serum, termination day, FCA induced arthritis", "procedure": "as §1, §2, §3", "units": {"Percentage of Inhibition (IL-1 Beta)": "%"}}
{"smiles": "Cc1sc2nc3c(c(N)c2c1C)CCCCC3", "note": "[BN-4, 2,3-dimethyl-6,7,8,9-tetrahydro-5H-cyclohepta[b]thieno[3,2-e]pyridin-4-amine]", "IL-1 Beta concentration": "22.83 ± 9.93 Pg/ml of tissue", "Percentage of Inhibition (IL-1 Beta)": "29.28 ± 3.60"}
{"smiles": "Nc1c2c(nc3sc4c(c13)CCC4)CCCC2", "note": "[BN-14, 2,3,6,7,8,9-Hexahydro-1H-cyclopenta[4,5]thieno[2,3-b]quinolin-10-amine]", "IL-1 Beta concentration": "50.83 ± 6.11 Pg/ml of tissue", "Percentage of Inhibition (IL-1 Beta)": "22.17 ± 6.51"}
{"test_system": "Wistar rats", "assay": "Freund's complete adjuvant (FCA) induced arthritis", "type": "in vivo, rat", "conditions": "BN compounds 100 mg/kg, indomethacin 2.5 mg/kg daily", "procedure": "(§4) Induction of Arthritis: Arthritis was induced by injecting Freund's complete adjuvant (FCA. Required quantity of FCA was weighed and suspension made with paraffin oil (DIFCO Laboratories) and administered at dose of 0.5 mg/rat in subplantar region of the right hind paw. After 7 days, a booster injection was given to all animals to hind paws.\n(§5) Experimental Design Animals were divided into 6 groups of 6 rats each and were designated as:\nas §1\n(§6) Clinical Assessment of Adjuvant arthritis: Rats were examined for visual appearance of arthritis and the lesion of erythema and inflammation of periarticular tissues on 14th day, 18th day and on 21st day. Arthritis scoring scale as follows:\n(§7) 2=Mild swelling and erythema of the limb 3=Gross swelling and erythema of the limb 4=Gross deformity and inability to use the limb\n(§8) The arthritis score of each rat was the sum of the scores of both hind limbs and maximum score was being 8 for each rat.", "units": {"% Of inhibition, 5th Day": "%", "% Of inhibition, 12th Day": "%", "% Of inhibition, 18th Day": "%"}}
{"smiles": "Cc1sc2nc3c(c(N)c2c1C)CCCCC3", "note": "[BN-4, 2,3-dimethyl-6,7,8,9-tetrahydro-5H-cyclohepta[b]thieno[3,2-e]pyridin-4-amine]", "% Of inhibition, 5th Day": "36.41 ± 3.84", "% Of inhibition, 12th Day": "42.88 ± 8.45", "% Of inhibition, 18th Day": "40.71 ± 7.59"}
{"smiles": "Nc1c2c(nc3sc4c(c13)CCC4)CCCC2", "note": "[BN-14, 2,3,6,7,8,9-Hexahydro-1H-cyclopenta[4,5]thieno[2,3-b]quinolin-10-amine]", "% Of inhibition, 5th Day": "19.47 ± 1.38", "% Of inhibition, 12th Day": "37.90 ± 4.12"}
{"test_system": "Wistar rats", "assay": "Freund's complete adjuvant (FCA) induced arthritis", "type": "in vivo, rat", "conditions": "BN compounds 100 mg/kg, indomethacin 2.5 mg/kg daily; FCA study", "procedure": "as §4, §5, §1, §6, §7, §8"}
{"smiles": "Cc1sc2nc3c(c(N)c2c1C)CCCCC3", "note": "[BN-4, 2,3-dimethyl-6,7,8,9-tetrahydro-5H-cyclohepta[b]thieno[3,2-e]pyridin-4-amine]", "Body weight index, 21st DAY": "199.87 ± 4.76"}
{"smiles": "Nc1c2c(nc3sc4c(c13)CCC4)CCCC2", "note": "[BN-14, 2,3,6,7,8,9-Hexahydro-1H-cyclopenta[4,5]thieno[2,3-b]quinolin-10-amine]", "Body weight index, 21st DAY": "201.51 ± 6.61"}
{"test_system": "Wistar rats", "assay": "Freund's complete adjuvant (FCA) induced arthritis", "type": "in vivo, rat", "conditions": "BN compounds 100 mg/kg, indomethacin 2.5 mg/kg daily; in mL (unit assumed)", "procedure": "as §4, §5, §1, §6, §7, §8"}
{"smiles": "Cc1sc2nc3c(c(N)c2c1C)CCCCC3", "note": "[BN-4, 2,3-dimethyl-6,7,8,9-tetrahydro-5H-cyclohepta[b]thieno[3,2-e]pyridin-4-amine]", "Paw volume, 5th Day": "1.51 ± 0.09", "Paw volume, 12th Day": "1.42 ± 0.21", "Paw volume, 18th Day": "1.55 ± 0.20", "Paw volume, 21st Day": "1.63 ± 0.12"}
{"smiles": "Nc1c2c(nc3sc4c(c13)CCC4)CCCC2", "note": "[BN-14, 2,3,6,7,8,9-Hexahydro-1H-cyclopenta[4,5]thieno[2,3-b]quinolin-10-amine]", "Paw volume, 5th Day": "1.92 ± 0.03", "Paw volume, 12th Day": "1.54 ± 0.10", "Paw volume, 18th Day": "1.51 ± 0.14", "Paw volume, 21st Day": "1.40 ± 0.02"}
{"test_system": "Wistar rats", "assay": "Freund's complete adjuvant (FCA) induced arthritis", "type": "in vivo, rat", "conditions": "BN compounds 100 mg/kg, indomethacin 2.5 mg/kg; FCA study", "procedure": "as §4, §5, §1, §6, §7, §8"}
{"smiles": "Cc1sc2nc3c(c(N)c2c1C)CCCCC3", "note": "[BN-4, 2,3-dimethyl-6,7,8,9-tetrahydro-5H-cyclohepta[b]thieno[3,2-e]pyridin-4-amine]", "Body weight index, 1st DAY": "155.15 ± 3.1"}
{"smiles": "Nc1c2c(nc3sc4c(c13)CCC4)CCCC2", "note": "[BN-14, 2,3,6,7,8,9-Hexahydro-1H-cyclopenta[4,5]thieno[2,3-b]quinolin-10-amine]", "Body weight index, 1st DAY": "158.02 ± 2.51"}
{"test_system": "Wistar rats", "assay": "Freund's complete adjuvant (FCA) induced arthritis", "type": "in vivo, rat", "conditions": "termination day, FCA model; BN compounds 100 mg/kg, Indomethacin 2.5 mg/kg", "procedure": "as §4, §5, §1, §6, §7, §8"}
{"smiles": "Cc1sc2nc3c(c(N)c2c1C)CCCCC3", "note": "[BN-4, 2,3-dimethyl-6,7,8,9-tetrahydro-5H-cyclohepta[b]thieno[3,2-e]pyridin-4-amine]", "Total WBC count": "18.53±1.36"}
{"smiles": "Nc1c2c(nc3sc4c(c13)CCC4)CCCC2", "note": "[BN-14, 2,3,6,7,8,9-Hexahydro-1H-cyclopenta[4,5]thieno[2,3-b]quinolin-10-amine]", "Total WBC count": "19.70±0.66"}
{"test_system": "TNF-α", "assay": "TNF-α in rat paw tissue, FCA model (ELISA)", "type": "in vivo", "conditions": "termination day", "procedure": "as §1, §2", "units": {"% Inhibition (TNF-α)": "%"}}
{"smiles": "Cc1sc2nc3c(c(N)c2c1C)CCCCC3", "note": "[BN-4, 2,3-dimethyl-6,7,8,9-tetrahydro-5H-cyclohepta[b]thieno[3,2-e]pyridin-4-amine]", "% Inhibition (TNF-α)": "42.9 ± 3.78"}
{"smiles": "Nc1c2c(nc3sc4c(c13)CCC4)CCCC2", "note": "[BN-14, 2,3,6,7,8,9-Hexahydro-1H-cyclopenta[4,5]thieno[2,3-b]quinolin-10-amine]", "% Inhibition (TNF-α)": "38.03 ± 9.73"}
{"test_system": "mice", "assay": "Acute oral toxicity, sighting study in mice", "type": "in vivo, mouse", "conditions": "2000 mg/kg in mice", "procedure": "In the series of thioenopyridine derivatives compounds BN-4, BN-14 and BN-16 show good antiinflammatory potential in all models tested. […] Acute Oral Toxicity Study was conducted following OECD guidelines by fixed dose method adopted by OECD (420). The study involved preliminary sighting using small number of animals in order to derive the dose effect relation for toxicity and mortality and to provide information on dose selection for the main study.\nIn the preliminary sighting study, the effect of various dosed administered to single animals of each sex was investigated in a sequential manner. The sighting study generally yields information on the dose-toxicity relationship including an estimate of the minimum lethal dose. In the main study, the test article is administered to groups of 5 males and 5 female animals at one of the fixed doses (5, 50, 500 and 2000 mg/Kg). The dose is derived from the sighting study. It is immediately below that which is expected to result in mortality. If evident toxicity is not seen at the chosen dose level, the substance should be retested at the next higher dose level. If at the initial dose level, animals die, or a severe toxicity reaction requires removal of animals from the study for animal welfare reasons, the substance is retested at the next lower dose level. […]"}
{"smiles": "Nc1c2c(nc3sc4c(c13)CCC4)CCCC2", "note": "[BN-14, 2,3,6,7,8,9-Hexahydro-1H-cyclopenta[4,5]thieno[2,3-b]quinolin-10-amine]", "Toxicity, sighting study": "toxic"}
{"test_system": "Wistar rats", "assay": "Cotton pellet granuloma (sub acute model)", "type": "in vivo, rat", "conditions": "BN compounds 100 mg/kg, Indomethacin 5 mg/kg, daily for 7 days", "procedure": "Wistar rats weighing between 180-220 gms were anaesthetized with ether. The skin at their back was shaved and disinfected with 70% alcohol according to D'Arcy et al., 1960). An incision was made in the lumbar region. Using a blunt forceps subcutaneous tunnel was formed and a sterilized cotton pellet was placed on both sides in scapular region. Standard 20 mg cotton pellets was weighed and sterilized for the study. Rats were grouped into 5 groups of 6 animals each. […] On 8th day rats in all groups were sacrificed with anesthetic ether. Pellets were removed and kept overnight for incubation at 37° C. Then pellets were dried at 60° C. until they reach constant weight. The wet weight of pellets was also recorded after sacrificing. The average weights of pellets of control group and other treated groups were calculated. The percent change of granuloma weight was calculated for all the test groups comparing with control group.", "units": {"% Inhibition (granuloma dry weight)": "%", "% Inhibition (granuloma wet weight)": "%", "Granuloma Dry Weight": "mg", "Granuloma Wet Weight": "mg"}}
{"smiles": "Cc1sc2nc3c(c(N)c2c1C)CCCCC3", "note": "[BN-4, 2,3-dimethyl-6,7,8,9-tetrahydro-5H-cyclohepta[b]thieno[3,2-e]pyridin-4-amine]", "% Inhibition (granuloma dry weight)": "28.42 ± 3.09", "% Inhibition (granuloma wet weight)": "22.23 ± 1.20", "Granuloma Dry Weight": "83.33 ± 3.59", "Granuloma Wet Weight": "366.08 ± 3.50"}
{"smiles": "Nc1c2c(nc3sc4c(c13)CCC4)CCCC2", "note": "[BN-14, 2,3,6,7,8,9-Hexahydro-1H-cyclopenta[4,5]thieno[2,3-b]quinolin-10-amine]", "% Inhibition (granuloma dry weight)": "25.48 ± 1.89", "% Inhibition (granuloma wet weight)": "20.21 ± 0.58", "Granuloma Dry Weight": "86.75 ± 2.20", "Granuloma Wet Weight": "374.42 ± 4.69"}
